For 14 compounds, IC50 results are on record in patent US8163724B2, “Glucocorticosteroids, processes for their preparation, pharmaceutical compositions containing them and their use in therapy” (AstraZeneca AB, priority 2007, dated 2012).

The target in the assay is T1, recombinant human GR (Homo sapiens, UniProt P04150).
T1 construct: purchased Panvera/Invitrogen P2812 (kit P2893)
T1 sequence (P04150 1-777): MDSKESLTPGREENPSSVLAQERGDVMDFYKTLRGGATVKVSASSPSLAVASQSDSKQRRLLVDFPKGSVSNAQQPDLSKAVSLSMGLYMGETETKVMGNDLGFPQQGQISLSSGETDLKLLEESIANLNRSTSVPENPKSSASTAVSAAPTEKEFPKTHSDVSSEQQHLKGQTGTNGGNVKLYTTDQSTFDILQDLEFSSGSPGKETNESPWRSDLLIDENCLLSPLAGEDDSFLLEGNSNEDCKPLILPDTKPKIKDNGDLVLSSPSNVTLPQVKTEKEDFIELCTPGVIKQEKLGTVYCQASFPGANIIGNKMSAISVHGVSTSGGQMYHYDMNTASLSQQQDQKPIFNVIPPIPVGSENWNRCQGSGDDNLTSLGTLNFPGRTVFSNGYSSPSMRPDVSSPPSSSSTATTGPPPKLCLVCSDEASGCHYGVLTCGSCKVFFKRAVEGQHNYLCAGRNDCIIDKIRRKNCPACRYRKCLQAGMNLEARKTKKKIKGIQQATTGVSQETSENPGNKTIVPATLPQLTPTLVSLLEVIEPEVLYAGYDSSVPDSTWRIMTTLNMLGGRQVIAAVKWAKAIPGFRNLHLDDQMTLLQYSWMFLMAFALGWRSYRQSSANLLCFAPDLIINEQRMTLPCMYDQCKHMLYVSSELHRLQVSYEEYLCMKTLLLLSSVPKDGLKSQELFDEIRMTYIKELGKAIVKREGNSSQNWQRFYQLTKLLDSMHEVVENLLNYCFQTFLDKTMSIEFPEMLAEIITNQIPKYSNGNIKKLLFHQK
As to the kind of experiment: Human Glucocorticoid Receptor (GR) Assay (fluorescence polarization, Panvera/Invitrogen kit). It is filed as binding. To be noted: fluorescence polarization; GS Red tracer; 2 hours at room temperature; 100% control 10 μM Dexamethasone; read-out: Inhibition of GR binding, IC50. Here is the method: Human Glucocorticoid Receptor (GR) Assay
The assay is based on a commercial kit from Panvera/Invitrogen (Part number P2893). The assay technology is fluorescence polarization. […] The GR and Stabilizing Peptide reagents are stored at −70° C. while the GS Red is stored at −20° C. Also included in the kit are 1M DTT (Panvera, Part number P2325, stored at −20° C.) and GR Screening buffer 10× (Panvera, Part number P2814, stored at −70° C. initially but once thawed stored at room temperature). Avoid repeated freeze/thaws for all reagents. The GR Screening buffer 10× comprises 100 mM potassium phosphate, 200 mM sodium molybdate, 1 mM EDTA and 20% DMSO.
0% control was 100% DMSO and 100% control was 10 μM Dexamethasone. Background solution (8 μL; assay buffer 10×, Stabilizing Peptide, DTT and ice cold MQ water) was added to the background wells. GS Red solution (7 μL; assay buffer 10×, Stabilizing Peptide, DTT, GS Red and ice cold water) was added to all wells except background wells. GR solution (7 μL; assay buffer 10×, Stabilizing Peptide, DTT, GR and ice cold water) was added to all wells. The plate was sealed and incubated in a dark at room temperature for 2 hours.
On the technique in general: In fluorescence polarisation assays a small probe gives low polarisation when free and higher when bound to something large.
In general, IC50 refers to the concentration that inhibits the measured activity by half. As for `C[C@]12Cc3cnn(-c4ccc(F)cc4)c3C=C1CC[C@@H]1[C@@H]2[C@@H](O)C[C@@]2(C)[C@H]1CC[C@]2(OC(=O)[C@H]1CCCO1)C(=O)SCC#N` (single isomer, unassigned) [Example 128], the concentration for half-maximal inhibition (IC50) was determined as 3.8 nM.
Regarding `C[C@]12Cc3cnn(-c4ccc(F)cc4)c3C=C1CC[C@@H]1[C@@H]2[C@@H](O)C[C@@]2(C)[C@H]1CC[C@]2(OC(=O)C1CCCCO1)C(=O)SCC#N` (single isomer, unassigned) [Example 136], the half-maximal inhibitory concentration (IC50) stood at 4.5 nM.
With `C[C@]12Cc3cnn(-c4ccc(F)cc4)c3C=C1CC[C@@H]1[C@@H]2[C@@H](O)C[C@@]2(C)[C@H]1CC[C@]2(OC(=O)C1CCCOC1)C(=O)SCC#N` (single isomer, unassigned) [Example 138], the IC50 was determined as 3.8 nM.
As to `Cc1ncsc1C(=O)O[C@]1(C(=O)SCF)CC[C@H]2[C@@H]3CCC4=Cc5c(cnn5-c5ccc(F)cc5)C[C@]4(C)[C@H]3[C@@H](O)C[C@@]21C` [Example 1, (1R,3aS,3bS,10aR,10bS,11S,12aS)-1-{[(Fluoromethyl)thio]carbonyl}-7-(4-fluorophenyl)-11-hydroxy-10a,12a-dimethyl-1,2,3,3a,3b,4,5,7,10,10a,10b,11,12,12a-tetradecahydrocyclopenta[5,6]naphtho[1,2-f]indazol-1-yl 4-methyl-1,3-thiazole-5-carboxylate], the half-maximal inhibitory concentration (IC50) turned out to be 7.6 nM.
For `Cc1ncsc1C(=O)O[C@]1(C(=O)SCC#N)CC[C@H]2[C@@H]3CCC4=Cc5c(cnn5-c5ccc(F)cc5)C[C@]4(C)[C@H]3[C@@H](O)C[C@@]21C` [Example 2, (1R,3aS,3bS,10aR,10bS,11S,12aS)-1-{[(Cyanomethyl)thio]carbonyl}-7-(4-fluorophenyl)-11-hydroxy-10a,12a-dimethyl-1,2,3,3a,3b,4,5,7,10,10a,10b,11,12,12a-tetradecahydrocyclopenta[5,6]naphtho[1,2-f]indazol-1-yl 4-methyl-1,3-thiazole-5-carboxylate], the IC50 was found to be 7.4 nM.
Take `CCSC(=O)[C@@]1(OC(=O)c2scnc2C)CC[C@H]2[C@@H]3CCC4=Cc5c(cnn5-c5ccc(F)cc5)C[C@]4(C)[C@H]3[C@@H](O)C[C@@]21C` [Example 3, (1R,3aS,3bS,10aR,10bS,11S,12aS)-1-[(Ethylthio)carbonyl]-7-(4-fluorophenyl)-11-hydroxy-10a,12a-dimethyl-1,2,3,3a,3b,4,5,7,10,10a,10b,11,12,12a-tetradecahydrocyclopenta[5,6]naphtho[1,2-f]indazol-1-yl 4-methyl-1,3-thiazole-5-carboxylate]: the IC50 was found to be 15 nM.
Turning to `Cc1nnsc1C(=O)O[C@]1(C(=O)SCF)CC[C@H]2[C@@H]3CCC4=Cc5c(cnn5-c5ccc(F)cc5)C[C@]4(C)[C@H]3[C@@H](O)C[C@@]21C` [Example 4, (1R,3aS,3bS,10aR,10bS,11S,12aS)-1-{[(Fluoromethyl)thio]carbonyl}-7-(4-fluorophenyl)-11-hydroxy-10a,12a-dimethyl-1,2,3,3a,3b,4,5,7,10,10a,10b,11,12,12a-tetradecahydrocyclopenta[5,6]naphtho[1,2-f]indazol-1-yl 4-methyl-1,2,3-thiadiazole-5-carboxylate], the IC50 was 5.9 nM.
With `CCSC(=O)[C@@]1(OC(=O)c2snnc2C)CC[C@H]2[C@@H]3CCC4=Cc5c(cnn5-c5ccc(F)cc5)C[C@]4(C)[C@H]3[C@@H](O)C[C@@]21C` [Example 5, (1R,3aS,3bS,10aR,10bS,11S,12aS)-1-[(Ethylthio)carbonyl]-7-(4-fluorophenyl)-11-hydroxy-10a,12a-dimethyl-1,2,3,3a,3b,4,5,7,10,10a,10b,11,12,12a-tetradecahydrocyclopenta[5,6]naphtho[1,2-f]indazol-1-yl 4-methyl-1,2,3-thiadiazole-5-carboxylate], the IC50 came to 15 nM.
On to `Cc1nnsc1C(=O)O[C@]1(C(=O)SCC#N)CC[C@H]2[C@@H]3CCC4=Cc5c(cnn5-c5ccc(F)cc5)C[C@]4(C)[C@H]3[C@@H](O)C[C@@]21C` [Example 6, (1R,3aS,3bS,10aR,10bS,11S,12aS)-1-{[(Cyanomethyl)thio]carbonyl}-7-(4-fluorophenyl)-11-hydroxy-10a,12a-dimethyl-1,2,3,3a,3b,4,5,7,10,10a,10b,11,12,12a-tetradecahydrocyclopenta[5,6]naphtho[1,2-f]indazol-1-yl 4-methyl-1,2,3-thiadiazole-5-carboxylate], for which the concentration for half-maximal inhibition (IC50) was determined as 5.9 nM.
Consider `C[C@]12Cc3cnn(-c4ccc(F)cc4)c3C=C1CC[C@@H]1[C@@H]2[C@@H](O)C[C@@]2(C)[C@H]1CC[C@]2(OC(=O)c1ccco1)C(=O)SCC#N` [Example 7, (1R,3aS,3bS,10aR,10bS,11S,12aS)-1-{[(Cyanomethyl)thio]carbonyl}-7-(4-fluorophenyl)-11-hydroxy-10a,12a-dimethyl-1,2,3,3a,3b,4,5,7,10,10a,10b,11,12,12a-tetradecahydrocyclopenta[5,6]naphtho[1,2-f]indazol-1-yl 2-furoate], for which the IC50 is 5.6 nM.
Regarding `C[C@]12Cc3cnn(-c4ccc(F)cc4)c3C=C1CC[C@@H]1[C@@H]2[C@@H](O)C[C@@]2(C)[C@H]1CC[C@]2(OC(=O)c1ccco1)C(=O)SCF` [Example 8, (1R,3aS,3bS,10aR,10bS,11S,12aS)-1-{[(Fluoromethyl)thio]carbonyl}-7-(4-fluorophenyl)-11-hydroxy-10a,12a-dimethyl-1,2,3,3a,3b,4,5,7,10,10a,10b,11,12,12a-tetradecahydrocyclopenta[5,6]naphtho[1,2-f]indazol-1-yl 2-furoate], the IC50 is 4.7 nM.
For the compound `Cc1ncsc1C(=O)O[C@]1(C(=O)OCC#N)CC[C@H]2[C@@H]3CCC4=Cc5c(cnn5-c5ccc(F)cc5)C[C@]4(C)[C@H]3[C@@H](O)C[C@@]21C` [Example 9, Cyanomethyl(1R,3aS,3bS,10aR,10bS,11S,12aS)-7-(4-fluorophenyl)-11-hydroxy-10a,12a-dimethyl-1-{[(4-methyl-1,3-thiazol-5-yl)carbonyl]oxy}-1,2,3,3a,3b,4,5,7,10,10a,10b,11,12,12a-tetradecahydrocyclopenta[5,6]naphtho[1,2-f]indazole-1-carboxylate], the concentration for half-maximal inhibition (IC50) was determined as 9.4 nM.
`CCC(=O)O[C@]1(C(=O)SCC#N)CC[C@H]2[C@@H]3CCC4=Cc5c(cnn5-c5ccc(F)cc5)C[C@]4(C)[C@H]3[C@@H](O)C[C@@]21C` [Example 10, (1R,3aS,3bS,10aR,10bS,11S,12aS)-1-{[(Cyanomethyl)thio]carbonyl}-7-(4-fluorophenyl)-11-hydroxy-10a,12a-dimethyl-1,2,3,3a,3b,4,5,7,10,10a,10b,11,12,12a-tetradecahydrocyclopenta[5,6]naphtho[1,2-f]indazol-1-yl propionate]: the IC50 was 3.2 nM.
As for `CCC(=O)O[C@]1(C(=O)SCC(=O)OC)CC[C@H]2[C@@H]3CCC4=Cc5c(cnn5-c5ccc(F)cc5)C[C@]4(C)[C@H]3[C@@H](O)C[C@@]21C` [Example 11, (1R,3aS,3bS,10aR,10bS,11S,12aS)-7-(4-Fluorophenyl)-11-hydroxy-1-{[(2-methoxy-2-oxoethyl)thio]carbonyl}-10a,12a-dimethyl-1,2,3,3a,3b,4,5,7,10,10a,10b,11,12,12a-tetradecahydrocyclopenta[5,6]naphtho[1,2-f]indazol-1-yl propanoate], the figure is 3.8 nM.
